Among the test systems are HCT-15; HOP-92; HCT-116; UACC-62; HL-60; NCI-H23; CAKI-1; OVCAR-5; Malme-3M; SNB-19; NCI/ADR-RES; MCF7; HCC 2998; RXF 393; EKVX; SR; ACHN; OVCAR-8; MOLT-4; U-251.
Common to all, as to experiment: NCI-60 cell line screen, 48 h

Molecules are shown by their SMILES.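 Where inhibition never reached the appropriate level, the endpoint shown equals the highest concentration tested. Otherwise, values were interpolated linearly from a five-concentration, 48-hour dose response in 96-well plates. The concentration for 50% growth inhibition is given as GI50.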 The source made the active and inactive calls. Rule as the data show it: active = GI50 up to about 1.1 µM and inactive = higher. Where a SMILES comes first, the peptide text is derived from it. [ ]: non-standard residue; d: D form. The star is where a group is joined. Bn2Val = CC(C)[C@@H](C(=O)*)N(Cc1ccccc1)Cc1ccccc1; NH(4-F-benzyl) = Fc1ccc(CN*)cc1; NMeV = CN[C@H](C(=O)O)C(C)C; dNMeA = CN[C@H](C)C(=O)O

As for `COc1cc(OCc2nc3cc(C(F)(F)F)ccc3nc2-c2ccccc2)cc(OC)c1OC`, the GI50 was greater than 100 µM in the assay on HCT-15; > 100 µM (inactive) with HOP-92; 94 µM (inactive) in the assay on HCT-116; 61.4 µM (inactive) with UACC-62; > 100 µM (inactive) in the assay on HL-60; 87.3 µM (inactive) in the assay on NCI-H23. Besides, the GI50 was > 100 µM (inactive) in the assay with CAKI-1; > 100 µM (inactive) in the assay with OVCAR-5; > 100 µM (inactive) in the assay on Malme-3M; 94.6 µM (inactive) in the assay on SNB-19; 61.2 µM (inactive) in the assay on NCI/ADR-RES; 56.4 µM (inactive) in the assay on MCF7. Besides, the GI50 is > 100 µM (inactive) with HCC 2998; 19.5 µM (inactive) in the assay on RXF 393; 91.4 µM (inactive) with EKVX; 81.5 µM (inactive) with SR; > 100 µM (inactive) with ACHN; 64.3 µM (inactive) in the assay on OVCAR-8. For the same compound, the GI50 was 8.75 µM (inactive) with MOLT-4 and 39.6 µM (inactive) in the assay on U-251.
Regarding `O=C1c2c(Cl)c(Cl)c(Cl)c(Cl)c2C(=O)N1CCN(c1c(Cl)ssc1=O)c1c(Cl)ssc1=O`, the GI50 in the assay on HCT-15 was 19.5 µM; in the assay on HOP-92, 20.1 µM (inactive); with HCT-116, 16.1 µM (inactive); in the assay on UACC-62 it was 19.3 µM (inactive); with HL-60, 30.2 µM (inactive); in the assay with NCI-H23 it was 40.9 µM (inactive). The GI50 in the assay with CAKI-1 is 17.5 µM (inactive); with OVCAR-5, 50.1 µM (inactive); with Malme-3M, 25.2 µM (inactive); in the assay on SNB-19 it was > 100 µM (inactive); in the assay on NCI/ADR-RES it was 49.3 µM (inactive); in the assay on MCF7 it was 19.6 µM (inactive). The GI50 is 21.2 µM (inactive) in the assay with HCC 2998; 16.4 µM (inactive) in the assay on RXF 393; 32.1 µM (inactive) in the assay with EKVX; 20 µM (inactive) in the assay with SR; 18.2 µM (inactive) in the assay with ACHN; 21.7 µM (inactive) in the assay on OVCAR-8. Moreover, the GI50 in the assay with MOLT-4 is 10.3 µM (inactive); with U-251, 95.9 µM (inactive).
On to `CC(C)[C@H](NC(=O)[C@H](C(C)C)N(Cc1ccccc1)Cc1ccccc1)C(=O)N(C)[C@H](C(=O)N1CCC[C@H]1C(=O)N(C)[C@H](C)C(=O)NCc1ccc(F)cc1)C(C)C` (Bn2Val-V[NMeV]P[dNMeA]-{NH(4-F-benzyl)}), for which the GI50 in the assay on HCT-15 is 3.79 µM; in the assay with HOP-92, 2.97 µM (inactive); in the assay with HCT-116, 2.97 µM (inactive); in the assay with UACC-62, 2.96 µM (inactive); with HL-60, 2.54 µM (inactive); in the assay with NCI-H23, 3.82 µM (inactive). Further, the GI50 in the assay on CAKI-1 was 5.13 µM (inactive); with OVCAR-5 it was 3.59 µM (inactive); in the assay on Malme-3M, 3.63 µM (inactive); in the assay with SNB-19, 4.88 µM (inactive); in the assay on NCI/ADR-RES it was 4.38 µM (inactive); in the assay on MCF7 it was 2.72 µM (inactive). Also, the GI50 in the assay on HCC 2998 is 3.48 µM (inactive); in the assay with RXF 393, 2.34 µM (inactive); with EKVX, 3.09 µM (inactive); in the assay on SR, 2.14 µM (inactive); in the assay on ACHN, 3.33 µM (inactive); in the assay with OVCAR-8, 4.01 µM (inactive). Further, the results for the GI50 in the assay with MOLT-4 and with U-251 were 2.55 µM (inactive) and 3.3 µM (inactive), respectively.
Regarding `COC(=O)c1c(C)cccc1C1CN=NC12Cc1ccccc1C2=O` (centres undefined), the GI50 was 78.3 µM with HCT-15; > 57.7 µM (inactive) with HOP-92; 46.2 µM (inactive) in the assay with HCT-116; 74.6 µM (inactive) in the assay on UACC-62; 36.9 µM (inactive) in the assay with HL-60; 60.4 µM (inactive) in the assay on NCI-H23. Further, the GI50 was 98.6 µM (inactive) in the assay on CAKI-1; > 100 µM (inactive) with OVCAR-5; > 45.1 µM (inactive) in the assay on Malme-3M; > 100 µM (inactive) in the assay on SNB-19; 35.1 µM (inactive) with NCI/ADR-RES; 2.46 µM (inactive) in the assay with MCF7. For the same compound, the GI50 is > 100 µM (inactive) in the assay with HCC 2998; > 100 µM (inactive) in the assay on RXF 393; > 93.5 µM (inactive) in the assay with EKVX; 47.2 µM (inactive) in the assay with SR; > 100 µM (inactive) in the assay with ACHN; > 100 µM (inactive) in the assay on OVCAR-8. In addition, the GI50 is 36.2 µM (inactive) in the assay on MOLT-4 and > 100 µM (inactive) in the assay on U-251.
As to `O=C(NCCCCl)c1c(O)c2ccccc2[nH]c1=O`, the GI50 is greater than 100 µM in the assay on HCT-15; > 43.3 µM (inactive) with HOP-92; > 100 µM (inactive) in the assay with HCT-116; > 50.9 µM (inactive) in the assay with UACC-62; > 100 µM (inactive) in the assay with HL-60; > 87.3 µM (inactive) in the assay on NCI-H23. Besides, the GI50 is > 100 µM (inactive) in the assay with CAKI-1; > 100 µM (inactive) in the assay on OVCAR-5; > 100 µM (inactive) with Malme-3M; > 100 µM (inactive) in the assay with SNB-19; > 71 µM (inactive) in the assay on NCI/ADR-RES; > 91.8 µM (inactive) in the assay on MCF7. In addition, the GI50 in the assay on HCC 2998 is > 76.2 µM (inactive); in the assay on RXF 393, > 41.3 µM (inactive); in the assay with EKVX, 50.6 µM (inactive); in the assay on SR, > 100 µM (inactive); in the assay with ACHN, > 100 µM (inactive); in the assay on OVCAR-8, > 100 µM (inactive). Moreover, the GI50 in the assay with MOLT-4 and with U-251 was > 100 µM (inactive) in each case.
`NC1=NN(c2ccccc2)C2(O)c3ccncc3C3=NN(c4ccccc4)C(=O)C132` (centres undefined): the GI50 was greater than 100 µM in the assay with HCT-15; > 100 µM (inactive) with HOP-92; > 100 µM (inactive) in the assay on HCT-116; > 100 µM (inactive) in the assay on UACC-62; > 100 µM (inactive) in the assay on HL-60; > 100 µM (inactive) with NCI-H23. The GI50 with CAKI-1 was > 100 µM (inactive); in the assay on OVCAR-5, > 100 µM (inactive); in the assay with Malme-3M it was 63.1 µM (inactive); in the assay on SNB-19, > 100 µM (inactive); in the assay with NCI/ADR-RES, > 100 µM (inactive); in the assay with MCF7, > 100 µM (inactive). Further, the GI50 in the assay on HCC 2998, in the assay with RXF 393, with EKVX, in the assay on SR, in the assay with ACHN and with OVCAR-8 was > 100 µM (inactive) in each case. Besides, the GI50 in the assay with MOLT-4 and in the assay with U-251 was > 100 µM (inactive) each time.
As to `NCCCN(CCCN)CCc1cn(C(=O)c2ccccc2)cn1`, the GI50 was 7.78 µM in the assay on HCT-15; 4.05 µM (inactive) in the assay with HOP-92; 4.86 µM (inactive) in the assay with HCT-116; 8.57 µM (inactive) with UACC-62; 3.84 µM (inactive) in the assay on HL-60; 13.2 µM (inactive) in the assay with NCI-H23. Also, the GI50 is 4.46 µM (inactive) in the assay on CAKI-1; 16.2 µM (inactive) in the assay with OVCAR-5; 14.7 µM (inactive) in the assay on Malme-3M; 15.1 µM (inactive) with SNB-19; 14.4 µM (inactive) with NCI/ADR-RES; 2.62 µM (inactive) in the assay on MCF7. The GI50 in the assay with HCC 2998 was 4.52 µM (inactive); with RXF 393 it was 2.97 µM (inactive); with EKVX it was 7.21 µM (inactive); with SR it was 2.24 µM (inactive); with ACHN, 6.5 µM (inactive); in the assay with OVCAR-8 it was 16.9 µM (inactive). Further, the GI50 is 2.19 µM (inactive) in the assay on MOLT-4 and 14.4 µM (inactive) in the assay on U-251.
Regarding `Nc1ncnc2c1nc(Cl)n2C1OC(CO)C(O)C1O` (centres undefined), the GI50 with HCT-15 was 0.283 µM; in the assay with HOP-92, 9.08 µM (inactive); with HCT-116 it was 0.352 µM (active); in the assay with UACC-62 it was 0.966 µM (active); in the assay on HL-60 it was 0.181 µM (active); in the assay with NCI-H23, 1.95 µM (inactive). Moreover, the GI50 in the assay on CAKI-1 is 1.21 µM (inactive); with OVCAR-5, 2.28 µM (inactive); in the assay on Malme-3M it was 27.2 µM (inactive); with SNB-19, 22.1 µM (inactive); with NCI/ADR-RES, 1.41 µM (inactive); with MCF7 it was 0.562 µM (active). Also, the GI50 in the assay with HCC 2998 was 0.556 µM (active); with RXF 393 it was 0.213 µM (active); with EKVX, 5.7 µM (inactive); in the assay with SR it was 1.13 µM (inactive); in the assay with ACHN, 0.489 µM (active); with OVCAR-8, 1.11 µM (active). For the same compound, the GI50 in the assay on MOLT-4 is 0.474 µM (active); in the assay with U-251, 7.59 µM (inactive).
For `COc1ccc2[nH]c3c(C)c4ccnc(NCCCN(C)CCCNC(=O)NCCCN(C)CCCNc5nccc6c(C)c7[nH]c8ccc(OC)cc8c7c(C)c56)c4c(C)c3c2c1`, the GI50 in the assay with HCT-15 was 1.26 µM; in the assay on HOP-92 it was 0.406 µM (active); in the assay on HCT-116, 0.208 µM (active); in the assay with UACC-62, 1.33 µM (inactive); with HL-60 it was 0.147 µM (active); with NCI-H23 it was 0.989 µM (active). Further, the GI50 in the assay on CAKI-1 was 0.716 µM (active); with OVCAR-5, 0.843 µM (active); in the assay with Malme-3M, 0.569 µM (active); in the assay on SNB-19 it was 0.264 µM (active); in the assay on NCI/ADR-RES, 2.14 µM (inactive); in the assay on MCF7, 0.164 µM (active). Also, the GI50 with HCC 2998 is 0.265 µM (active); with RXF 393 it was 0.369 µM (active); in the assay with EKVX, 0.925 µM (active); in the assay with SR it was 0.102 µM (active); with ACHN, 0.352 µM (active); in the assay on OVCAR-8, 0.638 µM (active). The GI50 is 0.236 µM (active) in the assay on MOLT-4 and 0.205 µM (active) with U-251.
As for `O=C1/C(=C\c2ccc([N+](=O)[O-])cc2)CS(=O)(=O)C/C1=C/c1ccc([N+](=O)[O-])cc1`, the GI50 in the assay on HCT-15 is 0.117 µM; with HOP-92, 1.91 µM (inactive); in the assay with HCT-116, 0.288 µM (active); in the assay with UACC-62 it was 0.198 µM (active); in the assay with HL-60, 0.324 µM (active); with NCI-H23, 0.904 µM (active). Also, the GI50 in the assay on CAKI-1 was 1.4 µM (inactive); with OVCAR-5, 1.36 µM (inactive); with Malme-3M it was 0.41 µM (active); with SNB-19, 3.24 µM (inactive); in the assay with NCI/ADR-RES, 0.161 µM (active); in the assay with MCF7 it was 0.303 µM (active). Moreover, the GI50 with HCC 2998 is 0.247 µM (active); in the assay with RXF 393, 0.482 µM (active); in the assay with EKVX, 1.21 µM (inactive); in the assay with SR, 0.03 µM (active); with ACHN it was 0.705 µM (active); in the assay on OVCAR-8, 0.107 µM (active). Further, the GI50 in the assay with U-251 is 0.298 µM (active).

The values are drawn from ChEMBL document CHEMBL1201862, “PubChem BioAssay data set” (2004).
